Reference: ChEMBL document CHEMBL4295262, “Evaluation of the utility of stem-cell derived cardiomyocytes for drug proarrhythmic potential” (2019)

Columns and labels:
Conditions in all cases: human, ipsc-cm
[1] = (§1) Electrical activity assay on cell lines treated with a given drug. DMSO was used as a vehicle and a control, unblinded dofetilide was used as a control.; format: ADME, cell-based
[2] = as §1; format: ADME, cell-based; remark: listed apart in the source
[3] = as §1
[4] = as §1; remark: listed apart in the source
[5] = as §1; remark: listed apart in the source
[6] = as §1; remark: listed apart in the source
[7] = as §1; format: ADME, cell-based; set-up: FPDc: unit not given here
[8] = as §1; format: ADME, cell-based; set-up: FPDc: unit not given here; remark: listed apart in the source
[9] = 0.009507 µM, concentration (um) 0.00950736 uM
[10] = 0.03004 µM, concentration (um) 0.0300433 uM
[11] = 0.09494 µM, concentration (um) 0.0949367 uM
[12] = 0.3 µM, concentration (um) 0.3 uM
[13] = 0.003169 µM, concentration (um) 0.00316912 uM
[14] = 0.01001 µM, concentration (um) 0.0100144 uM
[15] = 0.03165 µM, concentration (um) 0.0316456 uM
[16] = 0.1 µM, concentration (um) 0.1 uM
[17] = 0.001 µM, concentration (um) 0.001 uM
[18] = 0.01 µM, concentration (um) 0.01 uM

## CCOC(=O)C1=C(C)NC(C)=C(C(=O)OC)C1c1cccc([N+](=O)[O-])c1 (configuration not stated) [NITRENDIPINE]
[1]; [9]
  FPD measurement: 39.69 FPDc
  FPDc: 6 Values Out Of 6 Were Excluded Due To Quiescence Or 0 Fpdc
[1]; [10]
  FPDc: 6 Values Out Of 6 Were Excluded Due To Quiescence Or 0 Fpdc
[1]; [11]
  FPDc: 6 Values Out Of 6 Were Excluded Due To Quiescence Or 0 Fpdc
[1]; [12]
  FPDc: 6 Values Out Of 6 Were Excluded Due To Quiescence Or 0 Fpdc
[2]; [9]
  FPD measurement: More Than Half The Wells Had A Quiescence Event Or Apdc Readings Of 0
  FPDc: More Than Half The Wells Had A Quiescence Event Or Fpdc Readings Of 0
[2]; [10]
  FPD measurement: More Than Half The Wells Had A Quiescence Event Or Apdc Readings Of 0
  FPDc: More Than Half The Wells Had A Quiescence Event Or Fpdc Readings Of 0
[2]; [11]
  FPD measurement: More Than Half The Wells Had A Quiescence Event Or Apdc Readings Of 0
  FPDc: More Than Half The Wells Had A Quiescence Event Or Fpdc Readings Of 0
[2]; [12]
  FPD measurement: 5 Values Out Of 5 Were Excluded Due To Quiescence Or 0 Apdc
  FPDc: 5 Values Out Of 5 Were Excluded Due To Quiescence Or 0 Fpdc
[3]; 0.009507 µM
  FPD measurement: 5 Values Out Of 5 Were Excluded Due To Quiescence Or 0 Apdc
  FPDc: 63.48
[3]; 0.03004 µM
  FPD measurement: 5 Values Out Of 5 Were Excluded Due To Quiescence Or 0 Apdc
  FPDc: 45.72
[3]; 0.09494 µM
  FPDc: 31.81
[3]; 0.3 µM
  FPD measurement: 5 Values Out Of 5 Were Excluded Due To Quiescence Or 0 Apdc
  FPDc: 19.65
[4]; 0.009507 µM
  FPD measurement: 1 Values Out Of 1 Were Excluded Due To Quiescence Or 0 Fpdc
  FPDc: 1 Values Out Of 1 Were Excluded Due To Quiescence Or 0 Fpdc
[4]; 0.03004 µM
  FPD measurement: 1 Values Out Of 1 Were Excluded Due To Quiescence Or 0 Fpdc
  FPDc: 1 Values Out Of 1 Were Excluded Due To Quiescence Or 0 Fpdc
[4]; 0.09494 µM
  FPD measurement: 1 Values Out Of 1 Were Excluded Due To Quiescence Or 0 Fpdc
  FPDc: 1 Values Out Of 1 Were Excluded Due To Quiescence Or 0 Fpdc
[4]; 0.3 µM
  FPD measurement: 1 Values Out Of 1 Were Excluded Due To Quiescence Or 0 Fpdc
  FPDc: 1 Values Out Of 1 Were Excluded Due To Quiescence Or 0 Fpdc
[5]; 0.009507 µM
  APDc: 66.7
  FPD measurement: 66.7 FPDc
[5]; 0.03004 µM
  APDc: 75.75
  FPD measurement: 75.75 FPDc
[5]; 0.09494 µM
  APDc: More Than Half The Wells Had A Quiescence Event Or Apdc Readings Of 0
  FPD measurement: More Than Half The Wells Had A Quiescence Event Or Apdc Readings Of 0
[5]; 0.3 µM
  APDc: More Than Half The Wells Had A Quiescence Event Or Apdc Readings Of 0
  FPD measurement: More Than Half The Wells Had A Quiescence Event Or Apdc Readings Of 0

## Cc1nc2n(c(=O)c1CCN1CCC(c3noc4cc(F)ccc34)CC1)CCCC2 [RISPERIDONE]
[6]; 0.003169 µM
  FPD measurement: 55.22 FPDc
  FPDc: 55.22
[6]; 0.01001 µM
  FPD measurement: 55.61 FPDc
  FPDc: 55.61
[6]; 0.03165 µM
  FPD measurement: 57.01 FPDc
  FPDc: 57.01
[6]; 0.1 µM
  FPD measurement: 65.06 FPDc
  FPDc: 65.06
[7]; [13]
  FPD measurement: 5 Values Out Of 5 Were Excluded Due To Quiescence Or 0 Apdc
  FPDc: 54.79
[7]; [14]
  FPD measurement: 5 Values Out Of 5 Were Excluded Due To Quiescence Or 0 Apdc
  FPDc: 49.58
[7]; [15]
  FPD measurement: 5 Values Out Of 5 Were Excluded Due To Quiescence Or 0 Apdc
  FPDc: 47.1
[7]; [16]
  FPD measurement: 5 Values Out Of 5 Were Excluded Due To Quiescence Or 0 Apdc
  FPDc: 61.9
[4]; 0.003169 µM
  FPD measurement: 1 Values Out Of 1 Were Excluded Due To Quiescence Or 0 Fpdc
  FPDc: 1 Values Out Of 1 Were Excluded Due To Quiescence Or 0 Fpdc
[4]; 0.01001 µM
  FPD measurement: 1 Values Out Of 1 Were Excluded Due To Quiescence Or 0 Fpdc
  FPDc: 1 Values Out Of 1 Were Excluded Due To Quiescence Or 0 Fpdc
[4]; 0.03165 µM
  FPD measurement: 1 Values Out Of 1 Were Excluded Due To Quiescence Or 0 Fpdc
  FPDc: 1 Values Out Of 1 Were Excluded Due To Quiescence Or 0 Fpdc
[4]; 0.1 µM
  FPD measurement: 1 Values Out Of 1 Were Excluded Due To Quiescence Or 0 Fpdc
  FPDc: 1 Values Out Of 1 Were Excluded Due To Quiescence Or 0 Fpdc
[8]; [13]
  FPDc: 0.03911
[8]; [14]
  FPDc: 0.03923
[8]; [15]
  FPDc: 0.03847
[8]; [16]
  FPDc: 0.03663

## COc1ccc(CCN(C)CCCC(C#N)(c2ccc(OC)c(OC)c2)C(C)C)cc1OC (configuration not stated) [VERAPAMIL]
[1]; [17]
  FPD measurement: 52.61 FPDc
  FPDc: 6 Values Out Of 6 Were Excluded Due To Quiescence Or 0 Fpdc
[1]; [18]
  FPD measurement: 58.45 FPDc
  FPDc: 6 Values Out Of 6 Were Excluded Due To Quiescence Or 0 Fpdc
[1]; [16]
  FPDc: 6 Values Out Of 6 Were Excluded Due To Quiescence Or 0 Fpdc
[1]; 1 µM, concentration (um) 1 uM
  FPDc: 6 Values Out Of 6 Were Excluded Due To Quiescence Or 0 Fpdc
[7]; [17]
  FPD measurement: 5 Values Out Of 5 Were Excluded Due To Quiescence Or 0 Apdc
  FPDc: 48.96
[7]; [18]
  FPD measurement: 5 Values Out Of 5 Were Excluded Due To Quiescence Or 0 Apdc
  FPDc: 54.23
[7]; [16]
  FPD measurement: 5 Values Out Of 5 Were Excluded Due To Quiescence Or 0 Apdc
  FPDc: 56.48
[7]; 1 µM, concentration (um) 1 uM
  FPD measurement: 5 Values Out Of 5 Were Excluded Due To Quiescence Or 0 Apdc
  FPDc: 50.52
[4]; 0.001 µM
  FPD measurement: 1 Values Out Of 1 Were Excluded Due To Quiescence Or 0 Fpdc
  FPDc: 1 Values Out Of 1 Were Excluded Due To Quiescence Or 0 Fpdc
[4]; 0.01 µM
  FPD measurement: 1 Values Out Of 1 Were Excluded Due To Quiescence Or 0 Fpdc
  FPDc: 1 Values Out Of 1 Were Excluded Due To Quiescence Or 0 Fpdc
[4]; 0.1 µM
  FPD measurement: 1 Values Out Of 1 Were Excluded Due To Quiescence Or 0 Fpdc
  FPDc: 1 Values Out Of 1 Were Excluded Due To Quiescence Or 0 Fpdc
[4]; 1 µM
  FPD measurement: 1 Values Out Of 1 Were Excluded Due To Quiescence Or 0 Fpdc
  FPDc: 1 Values Out Of 1 Were Excluded Due To Quiescence Or 0 Fpdc
[8]; [17]
  FPDc: 0.02679
[8]; [18]
  FPDc: 0.03865
[8]; [16]
  FPD measurement: More Than Half The Wells Had A Quiescence Event Or Fpdc Readings Of 0
  FPDc: More Than Half The Wells Had A Quiescence Event Or Fpdc Readings Of 0
[8]; 1 µM, concentration (um) 1 uM
  FPD measurement: More Than Half The Wells Had A Quiescence Event Or Fpdc Readings Of 0
  FPDc: More Than Half The Wells Had A Quiescence Event Or Fpdc Readings Of 0
